The values below are quoted from earlier work in patent publication US6709866B2, “Methods for enhancing survival of a neuron” (Aegera Therapeutics, Inc., priority 1996, dated 2004).

For data set [1], the system named is primary hippocampal, cortical and septal cultures. Conditions: Cheng et al. 1994.
The next data set has as its system hippocampal cultures. Conditions: 100 pM.
The subject of a further data set is motoneurons. The settings on record: literature.

Take `O=c1c(-c2ccc(O)cc2)coc2cc(O)cc(O)c12` [genistein]: the “effect on the neuroprotective effects of K252-like compounds” value in data set [1] is given as “blocked”. Turning to `C[C@]12O[C@H](C[C@]1(O)C(=O)O)n1c3ccccc3c3c4c(c5c6ccccc6n2c5c31)CNC4=O` [K252b], the “tyrosine phosphorylation of multiple proteins (40 to 200 kDa)” value with hippocampal cultures is “enhance tyrosine phosphorylation”.

As to `CCSCc1ccc2c(c1)c1c3c(c4c5cc(CSCC)ccc5n5c4c1n2[C@H]1C[C@](O)(C(=O)OC)[C@]5(C)O1)CNC3=O` [CEP1347], the “motoneuron death and loss of ChAT in vivo” value in the data set on motoneurons is “prevents developmentally programmed motoneuron death and loss of ChAT in adult motoneurons”.
